Measurements published in patent US20080312306A1, “POLYMORPHS, SOLVATES, AND HYDRATE OF 5-(4'-FLUORO-2'-OXO-1',2'-DIHYDROSPIRO[CYCLOPROPANE-1,3'-INDOL]-5'-YL)-1-METHYL-1H-PYRROLE-2-CARBONITRILE” (Wyeth, priority 2007, published 2008).

Experiments:
Type in all cases: physicochemical
[1] = Relative solubility of the crystallographic forms
From the text: (§1) The inventors found several advantages of these new forms of 5-(4′-fluoro-2′-oxo-1′,2′-dihydrospiro[cyclopropane-1,3′-indol]-5′-yl)-1-methyl-1H-pyrrole-2-carbonitrile. […] In yet a further embodiment, samples of the hydrate of 5-(4′-fluoro-2′-oxo-1′,2′-dihydrospiro[cyclopropane-1,3′-indol]-5′-yl)-1-methyl-1H-pyrrole-2-carbonitrile were hygroscopic.

[2] = Hygroscopicity / water content by dynamic vapor sorption (DVS)
From the text: as §1
The hydrate has a different structure of the crystal lattice of 5-(4′-fluoro-2′-oxo-1′,2′-dihydrospiro[cyclopropane-1,3′-indol]-5′-yl)-1-methyl-1H-pyrrole-2-carbonitrile from the Form I described in the art as determined by XRD and DSC. Specifically, the hydrate contains water in the crystal lattice. Specifically, as evidenced by dynamic vapor sorption (DVS), the hydrate contains about 2.5% to about 5% water. In one embodiment, the hydrate contains about 2.5% water at 0% relative humidity (RH).

[3] = Solid-form stability (thermodynamic stability, slurrying in solvent, water, micronization, vacuum)
From the text: as §1
The hydrate of 5-(4′-fluoro-2′-oxo-1′,2′-dihydrospiro[cyclopropane-1,3′-indol]-5′-yl)-1-methyl-1H-pyrrole-2-carbonitrile is also stable under a variety of conditions. In one example, the hydrate is stable in water. In another example, the hydrate is stable under conditions of micronization. In a further example, the hydrate is stable under a vacuum for a period of at least about 48 hours.

Row | solubility ([1]; compared with polymorph Form II) | hygroscopicity [2] | thermodynamic stability ([3]; compared with polymorph Form I) | conversion to other polymorphs ([3]; if slurried in a solvent) | water content (DVS) ([2]; at 0% relative humidity (RH)) | water content (DVS) ([2]; at 100% RH) | stability ([3]; in water) | period of stability under a vacuum ([3]; under a vacuum) | stability ([3]; under conditions of micronization) | Structure (SMILES) | solubility ([1]; compared with other crystallographic forms)
1 | more soluble than polymorph Form II |  |  |  |  |  |  |  |  | Cn1c(C#N)ccc1-c1ccc2c(c1F)C1(CC1)C(=O)N2 [polymorph Form III, 5-(4′-fluoro-2′-oxo-1′,2′-dihydrospiro[cyclopropane-1,3′-indol]-5′-yl)-1-methyl-1H-pyrrole-2-carbonitrile] | more soluble than other crystallographic forms
2 |  | not hygroscopic | more thermodynamically stable | does not convert to other polymorphs |  |  |  |  |  | Cn1c(C#N)ccc1-c1ccc2c(c1F)C1(CC1)C(=O)N2 [polymorph Form II, 5-(4′-fluoro-2′-oxo-1′,2′-dihydrospiro[cyclopropane-1,3′-indol]-5′-yl)-1-methyl-1H-pyrrole-2-carbonitrile] | 
3 |  | hygroscopic |  |  | about 2.5% | about 4.75% | stable | at least 48 hours | stable | Cn1c(C#N)ccc1-c1ccc2c(c1F)C1(CC1)C(=O)N2 [hydrate, 5-(4′-fluoro-2′-oxo-1′,2′-dihydrospiro[cyclopropane-1,3′-indol]-5′-yl)-1-methyl-1H-pyrrole-2-carbonitrile] | 
